Laboratory results published in patent US20110054014A1, “PRENYLFLAVANONE COMPOUNDS AND USES THEREOF” (NatureWise Biotech & Medicals Corporation, priority 2008, published 2011).
Where two headings read alike, the source gives them in different places.

System: Human breast cancer MCF-7 and MDA-MB-231 cells
Assay: Cytotoxicity assay (trypan blue exclusion)
Conditions: for IC50: read-out: IC50 values
Method: Human breast cancer MCF-7 and MDA-MB-231 cells were purchased from the Food Industry Research and Development Institute (Hsinchu, Taiwan). The cells were cultured in Dulbecco's modified Eagle's medium (Gibco) containing 10% fetal bovine serum (FBS), a 1% dilution of penicillin-streptomycin, and 2 mM glutamine. Cells were maintained at 37° C. in a humidified atmosphere of 95% air and 5% CO2. However, MDA-MB-231 cells were cultured in L-15 medium (Gibco) containing 10% fetal bovine serum (FBS), a 1% dilution of penicillin-streptomycin, and 2 mM glutamine. Cells were maintained at 37° C. in a humidified atmosphere of 100% air and 0% CO2.
The cells (1.5×10^6 per dish) were cultured in a 100-mm dish and incubated for 14 h prior to treatment with DMSO or with different concentrations of propolins (2.5, 5.0, 10, and 20.0 μg/mL) for 48 h. The propolins were small compounds with their MWs ranging from 408-492 Da. These values were converted to their respective molarities.
The cells were counted and their viability was determined by trypan blue exclusion assay. The activity was shown as IC50 value (the concentration required to induce 50% cytotoxicity), and the average value was obtained from triplicate data points.

In the case of CC(C)=CCC/C(C)=C/Cc1cc([C@@H]2CC(=O)c3c(O)cc(O)cc3O2)cc(O)c1O [Propolin F, reference compound], the IC50 (concentration required to induce 50% cytotoxicity, 48 h treatment, human breast cancer cells, cell line not given, one representative of three independent experiments) is reported as 47.2 µM.

For CC(C)=CCC/C(C)=C/Cc1c(O)cc2c(c1O)C(=O)C[C@@H](c1ccc(O)cc1)O2 [Propolin J, 5,7,4′-trihydroxy-6-geranylflavanone], the IC50 (Homo sapiens, 48 h) was 36.8 µM.

With CC(C)=CCC/C(C)=C/CC/C(C)=C/Cc1c(O)cc2c(c1O)C(=O)C[C@@H](c1ccc(O)c(O)c1)O2 [Propolin I, 5,7,3′,4′-tetrahydroxy-6-farnesylflavanone] the IC50 (Homo sapiens, 48 h) was 10.2 µM and the “cytotoxic activity against human breast cancer cells” value (conclusion in words from Table 2) was “cytotoxic activity”.
